Assays:
AR [1] = target: T1, AR (Rattus norvegicus, UniProt P15207); assay: Literature review: AR transactivation assays, agonist mode; conditions: reference classification from curated literature TA data (mean AC50)
T1 sequence (P15207 1-902): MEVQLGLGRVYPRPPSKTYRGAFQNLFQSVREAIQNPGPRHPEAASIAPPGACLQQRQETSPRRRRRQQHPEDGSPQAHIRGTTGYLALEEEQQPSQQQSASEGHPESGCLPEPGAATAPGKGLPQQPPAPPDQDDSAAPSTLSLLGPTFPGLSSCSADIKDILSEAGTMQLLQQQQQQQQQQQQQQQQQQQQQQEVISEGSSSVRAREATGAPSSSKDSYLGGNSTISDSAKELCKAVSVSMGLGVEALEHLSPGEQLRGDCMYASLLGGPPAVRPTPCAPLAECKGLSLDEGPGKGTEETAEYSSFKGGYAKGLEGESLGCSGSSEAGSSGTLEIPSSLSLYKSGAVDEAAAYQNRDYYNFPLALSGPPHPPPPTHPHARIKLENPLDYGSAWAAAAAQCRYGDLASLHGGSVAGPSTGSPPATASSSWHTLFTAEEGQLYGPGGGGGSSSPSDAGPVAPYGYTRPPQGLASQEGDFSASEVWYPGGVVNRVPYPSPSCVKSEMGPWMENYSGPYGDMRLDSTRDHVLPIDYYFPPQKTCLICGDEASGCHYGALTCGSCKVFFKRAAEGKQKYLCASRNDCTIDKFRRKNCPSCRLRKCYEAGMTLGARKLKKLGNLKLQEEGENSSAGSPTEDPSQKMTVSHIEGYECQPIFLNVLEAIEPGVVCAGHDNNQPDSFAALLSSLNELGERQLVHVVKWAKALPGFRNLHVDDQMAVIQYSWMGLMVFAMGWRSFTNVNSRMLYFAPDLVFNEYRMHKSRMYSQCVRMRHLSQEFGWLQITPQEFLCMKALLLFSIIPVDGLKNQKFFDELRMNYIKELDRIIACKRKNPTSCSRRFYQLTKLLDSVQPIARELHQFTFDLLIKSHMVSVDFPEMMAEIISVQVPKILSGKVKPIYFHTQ

cytotoxicity = type: cell-based; conditions: distance of AR assay logAC50 from median cytotoxicity logAC50; high = >3
AR pathway = conditions: for AR pathway model call: maximum of agonist or antagonist AUC
AR [2] = target: T2, AR (Homo sapiens, UniProt P10275); type: cell-based; conditions: AC50 at 10 nM vs 0.5 nM R1881, 95% confidence intervals
T2 sequence (P10275 1-920): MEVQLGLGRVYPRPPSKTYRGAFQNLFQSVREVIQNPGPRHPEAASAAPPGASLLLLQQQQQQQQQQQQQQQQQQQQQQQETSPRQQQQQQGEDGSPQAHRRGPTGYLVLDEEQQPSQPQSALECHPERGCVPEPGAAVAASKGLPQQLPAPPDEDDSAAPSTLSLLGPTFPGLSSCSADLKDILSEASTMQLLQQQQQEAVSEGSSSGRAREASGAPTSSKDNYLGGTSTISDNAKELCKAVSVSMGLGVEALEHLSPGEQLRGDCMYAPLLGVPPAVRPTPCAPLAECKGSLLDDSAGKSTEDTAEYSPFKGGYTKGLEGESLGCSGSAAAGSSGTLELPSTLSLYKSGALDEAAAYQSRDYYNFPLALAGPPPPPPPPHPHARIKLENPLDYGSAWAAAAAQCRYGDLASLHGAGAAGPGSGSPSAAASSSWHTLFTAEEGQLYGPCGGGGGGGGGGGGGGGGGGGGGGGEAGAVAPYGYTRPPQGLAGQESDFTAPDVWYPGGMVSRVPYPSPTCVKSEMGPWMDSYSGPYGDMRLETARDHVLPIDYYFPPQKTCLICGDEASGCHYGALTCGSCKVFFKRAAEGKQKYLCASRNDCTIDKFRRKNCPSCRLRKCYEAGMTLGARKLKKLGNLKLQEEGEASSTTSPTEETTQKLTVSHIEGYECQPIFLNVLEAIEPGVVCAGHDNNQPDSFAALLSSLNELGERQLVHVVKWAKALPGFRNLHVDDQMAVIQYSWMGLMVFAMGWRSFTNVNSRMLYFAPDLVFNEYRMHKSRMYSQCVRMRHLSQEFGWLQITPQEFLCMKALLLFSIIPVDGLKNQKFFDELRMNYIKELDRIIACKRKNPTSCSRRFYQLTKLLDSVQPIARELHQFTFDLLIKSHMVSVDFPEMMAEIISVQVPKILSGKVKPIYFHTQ

Oc1ccc(/C=C/c2cc(O)cc(O)c2)cc1 [resveratrol]
agonist potency category (AR [1]): negative

CON(C)C(=O)Nc1ccc(Cl)c(Cl)c1 [linuron]
average Z-score (cytotoxicity): high

CCc1cccc(C)c1N(C(=O)CCl)C(C)COC (stereo not drawn) [metolachlor]
AR pathway model call (AR pathway): negative (negative if the maximum was <0.001)

C=CC1(C)OC(=O)N(c2cc(Cl)cc(Cl)c2)C1=O (stereo not drawn) [vinclozolin]
average Z-score (cytotoxicity): high

CCOP(=S)(OCC)Oc1cc(C)nc(C(C)C)n1 [diazinon]
AR pathway model call (AR pathway): negative (negative if the maximum was <0.001)

CNC(=O)Oc1cccc2ccccc12 [carbaryl]
AR pathway model call (AR pathway): negative (negative if the maximum was <0.001)

C[C@]12CC[C@@H]3c4ccc(O)cc4C[C@@H](CCCCCCCCC[S+]([O-])CCCC(F)(F)C(F)(F)F)[C@H]3[C@@H]1CC[C@@H]2O (stereo partly drawn) [ICI 182,780]
agonist potency category (AR [1]): negative

CC1(C)C(C=C(Cl)Cl)C1C(=O)OCc1cccc(Oc2ccccc2)c1 (stereo not drawn) [permethrin]
agonist potency category (AR [1]): negative

C[C@H]1CCCC(=O)CCC/C=C/c2cc(O)cc(O)c2C(=O)O1 [zearalenone]
potency shift in antagonist confirmation assay (AR [2]): active in both screens and exhibited a potency shift in the expected direction | AR pathway model antagonist prediction against reference classification (AR pathway; antagonist reference chemicals): false negative

CC1(C)NC(=O)N(c2ccc([N+](=O)[O-])c(C(F)(F)F)c2)C1=O [nilutamide]
average Z-score (cytotoxicity): high

Oc1ccccc1-c1ccccc1 [2-phenylphenol]
AR pathway model call (AR pathway): negative (negative if the maximum was <0.001)

CC(=O)S[C@@H]1CC2=CC(=O)CC[C@]2(C)[C@H]2CC[C@@]3(C)[C@@H](CC[C@@]34CCC(=O)O4)[C@H]12 [spironolactone]
average Z-score (cytotoxicity): high

CCN=C1C=CC(=C(c2ccc(N(CC)CC)cc2)c2ccc(N(CC)CC)cc2)c2ccccc21.Cl [basic blue 7]
potency shift in antagonist confirmation assay (AR [2]): flagged for a lack of a potency shift

CC(C)(O)C(=O)Nc1ccc([N+](=O)[O-])c(C(F)(F)F)c1 [hydroxyflutamide]
average Z-score (cytotoxicity): high

CC(C)=CC1C(C(=O)OCN2C(=O)C3=C(CCCC3)C2=O)C1(C)C (stereo not drawn) [tetramethrin]
agonist potency category (AR [1]): negative

CC/N=c1\cc2oc3cc(NCC)c(C)cc3c(-c3ccccc3C(=O)OCC)c-2cc1C [rhodamine 6G]
potency shift in antagonist confirmation assay (AR [2]): flagged for a lack of a potency shift

CC/C(=C(\c1ccccc1)c1ccc(OCCN(C)C)cc1)c1ccccc1 [tamoxifen]
AR pathway model AUC, Agonist (R1) (AR pathway): 0.0335

N#Cc1c(Cl)cccc1Cl [dichlobenil]
AR pathway model call (AR pathway): negative (negative if the maximum was <0.001)

CCCCC(C#N)(Cn1cncn1)c1ccc(Cl)cc1 (stereo not drawn) [myclobutanil]
AR pathway model call (AR pathway): negative (negative if the maximum was <0.001)

CC[C@H](c1ccc(O)cc1)[C@@H](CC)c1ccc(O)cc1 [meso-hexestrol]
potency shift in antagonist confirmation assay (AR [2]): shift in the correct direction but with overlapping confidence intervals

COP(=S)(OC)SCN1C(=O)c2ccccc2C1=O [phosmet]
AR pathway model call (AR pathway): negative (negative if the maximum was <0.001)

C[C@]12CC[C@@H]3c4ccc(O)cc4CC[C@H]3[C@@H]1CC[C@H]2O [17a-estradiol]
AR pathway model AUC, Agonist (R1) (AR pathway): 0.67 | AR pathway model agonist prediction against reference classification (AR pathway; agonist reference chemicals): false positive

C[C@]12C=CC3=C4CCC(=O)C=C4CC[C@H]3[C@@H]1CC[C@@H]2O [17b-trenbolone]
agonist potency category (AR [1]): strong (Strong: mean AC50 ≤ 0.1 μM)

CCCCNC(=O)n1c(NC(=O)OC)nc2ccccc21 [benomyl]
agonist potency category (AR [1]): negative

CC1(C)[C@H](C(=O)O[C@H](C#N)c2cccc(Oc3ccccc3)c2)[C@@H]1C=C(Br)Br [deltamethrin]
agonist potency category (AR [1]): negative

O=c1cc(-c2ccc(O)cc2)oc2cc(O)cc(O)c12 [apigenin]
average Z-score (cytotoxicity): high

C[C@]1(O)CC[C@H]2[C@@H]3CCC4=CC(=O)CCC4=C3C=C[C@@]21C [methyltrienolone (R1881), methyltrienolone]
agonist potency category (AR [1]): strong (Strong: mean AC50 ≤ 0.1 μM)

COC(=O)Nc1nc2ccccc2[nH]1 [carbendazim]
agonist potency category (AR [1]): negative

Source: article PMC5396026 (Chemical Research in Toxicology, 2016)
